The record followed here is US12077503B2, “Substituted cyclic amides and their use as herbicides” (FMC CORPORATION, priority 2015, dated 2024).

Holding throughout (format): in vivo
Experiment [1] has as its system speedwell (bird's-eye speedwell, Veronica persica). Put plainly: Test D preemergence. The note with it: scale 0 to 100. Put shortly:
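Seeds of the weed and crop species were sown in silt loam soil and treated preemergence with compounds formulated in a non-phytotoxic solvent mixture containing surfactant. After about 21 d in a controlled growth environment, plants were visually rated against untreated controls on a 0–100 scale (0 = no effect, 100 = complete control).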

The test system of experiment [2] is foxtail, giant (giant foxtail, Setaria faberii). Put plainly: Test E preemergence. The note with it: scale 0 to 100. The method in brief:
(§1)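 Compound in non-phytotoxic solvent with surfactant is applied preemergence to silt loam soil after sowing, or postemergence to plants 2 to 18 cm tall in peat-based medium. Plants grow in a greenhouse for 14 to 21 d. Each species is then compared with controls and scored visually, 0 (no effect) to 100 (complete control).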

Experiment [3] has as its system poinsettia, wild (wild poinsettia, Euphorbia heterophylla). The experiment in a line: Test E preemergence. To be noted: scale 0 to 100. The method in brief: as §1
In experiment [4] the test system is barnyardgrass (Echinochloa crus-galli). The experiment in a line: Test G Post-Emergence Protocol. To be noted: Echinochloa crus-galli, post-emergence, 312 h; for pest or weed control at 15.625 g/ha: 15.625 g ai/ha, evaluated after 13 days (100=total damage to plant; 0=no damage to plant), read-out: Barnyardgrass damage rating; for pest or weed control at 62.5 g/ha: 62.5 g ai/ha, read-out: Barnyardgrass damage rating (100=total damage to plant; 0=no damage to plant); for pest or weed control at 62.5 g/ha / pest or weed control at 250 g/ha: evaluated after 13 days; for pest or weed control at 250 g/ha: 250 g ai/ha, read-out: damage to plant, Barnyardgrass (100=total damage to plant; 0=no damage to plant). The protocol:
(§2) Seeds of corn (Zea mays), giant foxtail (Setaria faberi), barnyardgrass (Echinochloa crus-galli), ivy-leaved morning glory (Ipomoea hederacea), redroot pigweed (Amaranthus retroflexus) and velvetleaf (Abutilon theophrasti) were sown in standard soil in pots. After cultivation for 8 days under controlled conditions in a glasshouse (at 24/16° C., day/night; 14 hours light; 65% humidity), the plants were sprayed with an aqueous spray solution derived from the formulation of the technical active ingredient in acetone/water (50:50) solution containing 0.5% Tween 20 (polyoxyethylene sorbitan monolaurate, CAS RN 9005-64-5) to give a final dose of 15.625, 62.5 or 250 g/ha of test compound.
(§3) The test plants were then grown on under controlled conditions in a glasshouse (at 24/16° C., day/night; 14 hours light; 65% humidity) and watered twice daily. After 13 days the test was evaluated (100=total damage to plant; 0=no damage to plant). A dash (-) means no test result.

For another experiment, the system named is corn (Zea mays). Put plainly: Test G Post-Emergence Protocol. The note with it: Zea mays, post-emergence, 312 h; for plant injury at 15.625 g/ha: 15.625 g ai/ha, evaluated after 13 days (100=total damage to plant; 0=no damage to plant), read-out: Corn damage rating; for plant injury at 62.5 g/ha: 62.5 g ai/ha, read-out: Corn damage rating (100=total damage to plant; 0=no damage to plant); for plant injury at 62.5 g/ha / plant injury at 250 g/ha: evaluated after 13 days; for plant injury at 250 g/ha: 250 g ai/ha, read-out: damage to plant, Corn (100=total damage to plant; 0=no damage to plant). The protocol:
as §2, §3

In experiment [5] the test system is giant foxtail (Setaria faberi). The experiment in a line: Test G Post-Emergence Protocol. The note with it: Setaria faberi, post-emergence, 312 h; for pest or weed control at 15.625 g/ha: 15.625 g ai/ha, evaluated after 13 days (100=total damage to plant; 0=no damage to plant), read-out: Foxtail, Giant damage rating; for pest or weed control at 62.5 g/ha: 62.5 g ai/ha, read-out: Foxtail, Giant damage rating (100=total damage to plant; 0=no damage to plant); for pest or weed control at 62.5 g/ha / pest or weed control at 250 g/ha: evaluated after 13 days; for pest or weed control at 250 g/ha: 250 g ai/ha, read-out: damage to plant, Foxtail, Giant (100=total damage to plant; 0=no damage to plant). The protocol:
as §2, §3

Experiment [6] relates to ivy-leaved morning glory (Ipomoea hederacea). The experiment in a line: Test G Post-Emergence Protocol. The note with it: Ipomoea, post-emergence, 312 h; for pest or weed control at 15.625 g/ha: 15.625 g ai/ha, evaluated after 13 days (100=total damage to plant; 0=no damage to plant), read-out: Morningglory, Ivy-leaved damage rating; for pest or weed control at 62.5 g/ha: 62.5 g ai/ha, read-out: Morningglory, Ivy-leaved damage rating (100=total damage to plant; 0=no damage to plant); for pest or weed control at 62.5 g/ha / pest or weed control at 250 g/ha: evaluated after 13 days; for pest or weed control at 250 g/ha: 250 g ai/ha, read-out: damage to plant, Morningglory, Ivy-leaved (100=total damage to plant; 0=no damage to plant). The protocol: as §2, §3

Experiment [7] concerns redroot pigweed (Amaranthus retroflexus). The experiment in a line: Test G Post-Emergence Protocol. The note with it: Amaranthus retroflexus, post-emergence, 312 h; for pest or weed control at 15.625 g/ha: 15.625 g ai/ha, evaluated after 13 days (100=total damage to plant; 0=no damage to plant), read-out: Pigweed, Redroot damage rating; for pest or weed control at 62.5 g/ha: 62.5 g ai/ha, read-out: Pigweed, Redroot damage rating (100=total damage to plant; 0=no damage to plant); for pest or weed control at 62.5 g/ha / pest or weed control at 250 g/ha: evaluated after 13 days; for pest or weed control at 250 g/ha: 250 g ai/ha, read-out: damage to plant, Pigweed, Redroot (100=total damage to plant; 0=no damage to plant). Here is the method:
as §2, §3

The test system of experiment [8] is velvetleaf (Abutilon theophrasti). Put plainly: Test G Post-Emergence Protocol. The note with it: Abutilon theophrasti, post-emergence, 312 h; for pest or weed control at 15.625 g/ha: 15.625 g ai/ha, evaluated after 13 days (100=total damage to plant; 0=no damage to plant), read-out: Velvetleaf damage rating; for pest or weed control at 62.5 g/ha: 62.5 g ai/ha, read-out: Velvetleaf damage rating (100=total damage to plant; 0=no damage to plant); for pest or weed control at 62.5 g/ha / pest or weed control at 250 g/ha: evaluated after 13 days; for pest or weed control at 250 g/ha: 250 g ai/ha, read-out: damage to plant, Velvetleaf (100=total damage to plant; 0=no damage to plant). The protocol:
as §2, §3

For `CN1CC(c2ccc(C(F)(F)F)cc2)C(C(=O)Nc2ccccc2S(C)(=O)=O)C1=O` (stereo not shown) [Compound 624], the “Plant response rating: Speedwell” value came to 90 in [1] (31 g ai/ha), 90 in experiment [1] (62 g ai/ha), 100 in experiment [1] (125 g ai/ha) and 100 in experiment [1] (250 g ai/ha). Also, the “Plant response rating: Foxtail, Giant” value was 20 in experiment [2] (31 g ai/ha), 50 in experiment [2] (62 g ai/ha), 70 in [2] (125 g ai/ha) and 85 in experiment [2] (250 g ai/ha). For the same molecule, the “Plant response rating: Poinsettia, Wild” value in [3] (31 g ai/ha) amounted to 20; in experiment [3] (62 g ai/ha), 20; in experiment [3] (125 g ai/ha) it was 30; in experiment [3] (250 g ai/ha) it was 40.
For the molecule `CN1CC(c2cccc(C(F)(F)F)c2)C(C(=O)Nc2ccccc2S(C)(=O)=O)C1=O` (stereo not shown) [Compound 637], the “Plant response rating: Speedwell” value was 15 in experiment [1] (31 g ai/ha), 60 in experiment [1] (62 g ai/ha), 100 in experiment [1] (125 g ai/ha) and 100 in experiment [1] (250 g ai/ha). Moreover, the “Plant response rating: Foxtail, Giant” value in [2] (31 g ai/ha) stood at 75; in experiment [2] (62 g ai/ha), 95; in [2] (125 g ai/ha), 98; in [2] (250 g ai/ha), 98. The “Plant response rating: Poinsettia, Wild” value is 0 in experiment [3] (31 g ai/ha), 0 in [3] (62 g ai/ha), 20 in experiment [3] (125 g ai/ha) and 25 in experiment [3] (250 g ai/ha).
As for `CN1CC(c2cccc(C(F)(F)F)c2)C(C(=O)Nc2cccc(F)c2F)C1=O` (stereo not shown) [Compound 636], the “Plant response rating: Foxtail, Giant” value in experiment [2] (31 g ai/ha), in experiment [2] (62 g ai/ha), in [2] (125 g ai/ha) and in experiment [2] (250 g ai/ha) was 95 throughout.
For `Cc1ccc([C@H]2CN(C)C(=O)[C@@H]2C(=O)Nc2cccnc2F)cc1` [Compound 1398], in [4], the pest or weed control at 15.625 g/ha is 80%, the pest or weed control at 62.5 g/ha was determined as 80% and the pest or weed control at 250 g/ha came to 80%. Further, in the experiment on corn (Zea mays), the plant injury at 15.625 g/ha is 30%, the plant injury at 62.5 g/ha is 70% and the plant injury at 250 g/ha is 80%. In experiment [5], the pest or weed control at 15.625 g/ha was 80%, the pest or weed control at 62.5 g/ha turned out to be 80% and the pest or weed control at 250 g/ha stood at 80%. In [6], the pest or weed control at 15.625 g/ha turned out to be 0%, the pest or weed control at 62.5 g/ha was determined as 40% and the pest or weed control at 250 g/ha amounted to 60%. Further, in experiment [7], the pest or weed control at 15.625 g/ha is 0%, the pest or weed control at 62.5 g/ha is 50% and the pest or weed control at 250 g/ha is 60%. In experiment [8], the pest or weed control at 15.625 g/ha was found to be 0%, the pest or weed control at 62.5 g/ha came out at 40% and the pest or weed control at 250 g/ha amounted to 40%.
Turning to `Cc1ccc([C@H]2CN(C)C(=O)[C@@H]2C(=O)Nc2ccc(F)nc2F)cc1` [Compound 1402], in experiment [4], the pest or weed control at 15.625 g/ha came to 80%, the pest or weed control at 62.5 g/ha came to 80% and the pest or weed control at 250 g/ha is 80%. In addition, in the experiment on corn (Zea mays), the plant injury at 15.625 g/ha is 70%, the plant injury at 62.5 g/ha was determined as 80% and the plant injury at 250 g/ha came out at 80%. In experiment [5], the pest or weed control at 15.625 g/ha came out at 80%, the pest or weed control at 62.5 g/ha was 80% and the pest or weed control at 250 g/ha is 80%. Moreover, in experiment [6], the pest or weed control at 15.625 g/ha turned out to be 10%, the pest or weed control at 62.5 g/ha worked out at 40% and the pest or weed control at 250 g/ha was determined as 60%. Also, in experiment [7], the pest or weed control at 15.625 g/ha came to 10%, the pest or weed control at 62.5 g/ha was found to be 60% and the pest or weed control at 250 g/ha was 60%. Further, in experiment [8], the pest or weed control at 15.625 g/ha is 0%, the pest or weed control at 62.5 g/ha was found to be 30% and the pest or weed control at 250 g/ha came to 50%.
